Substitutions are numbered along the chain they refer to. Where two headings read alike, the source gives them in different places. No end group written: not given here.
Experiments:
Type in all cases: cell-based
Parameters in all cases: WT (1–553); expressed in transfected cells; HEK 293T (cAMP)
[1] = target: T1, GLP-2R R242^ECL1E (Homo sapiens, UniProt O95838, R242E); test: cAMP accumulation, R242^ECL1E; conditions: HEK 293T, 30 min, RT, mean ± SEM, n ≥ 3 in duplicate; for Emax: HEK-293T, read-out: cAMP Emax (% WT); for EC50: read-out: cAMP pEC50 (converted)
T1 sequence (O95838 1-553 R242E): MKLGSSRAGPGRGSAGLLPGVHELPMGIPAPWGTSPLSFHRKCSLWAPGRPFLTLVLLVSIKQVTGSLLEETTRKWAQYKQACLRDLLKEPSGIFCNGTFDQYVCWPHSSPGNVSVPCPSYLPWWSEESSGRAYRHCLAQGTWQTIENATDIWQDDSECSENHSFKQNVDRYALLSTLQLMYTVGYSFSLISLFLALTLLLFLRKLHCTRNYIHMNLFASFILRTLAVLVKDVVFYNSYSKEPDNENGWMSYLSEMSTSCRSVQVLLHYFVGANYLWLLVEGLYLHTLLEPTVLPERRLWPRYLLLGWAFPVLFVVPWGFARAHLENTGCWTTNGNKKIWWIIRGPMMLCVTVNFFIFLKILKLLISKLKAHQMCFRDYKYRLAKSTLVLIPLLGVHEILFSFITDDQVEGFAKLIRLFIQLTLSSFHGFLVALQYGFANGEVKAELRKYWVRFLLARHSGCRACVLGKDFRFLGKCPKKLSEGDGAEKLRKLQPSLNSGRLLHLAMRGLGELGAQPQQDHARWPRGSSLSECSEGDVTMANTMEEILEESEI
Method: (§1) They were seeded onto 6-well cell culture plates and transiently transfected with different GLP-2R constructs using Lipofectamine 2000 transfection reagent (Invitrogen, Carlsbad, CA, USA). After 24 h, the transfected cells were seeded onto 384-well microtiter plates (3000 cells per well) in HBSS supplemented with 5 mM HEPES, 0.1% (w/v) bovine serum albumin (BSA) and 0.5 mM 3-isobutyl-1- methylxanthine, and stimulated with increasing concentrations of GLP-2 for 30 min at RT. Eu and Ulight were diluted by cAMP detection buffer and added to the plates separately to terminate the reaction. Plates were incubated at RT for 60 min before measuring the fluorescence intensity at 620 nm and […] by an EnVision multilabel plate reader (PerkinElmer, Boston, USA).

[2] = target: T2, GLP-2R Y252^ECL1A (Homo sapiens, UniProt O95838, Y252A); test: cAMP accumulation, Y252^ECL1A; conditions: HEK 293T, 30 min, RT, mean ± SEM, n ≥ 3 in duplicate; for Emax: HEK-293T, read-out: cAMP Emax (% WT); for EC50: read-out: cAMP pEC50 (converted)
T2 sequence (O95838 1-553 Y252A): T1 sequence (O95838 1-553 R242E) with E242R, Y252A
Method: as §1

[3] = target: T3, GLP-2R W249^ECL1A (Homo sapiens, UniProt O95838, W249A); test: cAMP accumulation, W249^ECL1A; conditions: HEK 293T, 30 min, RT, mean ± SEM, n ≥ 3 in duplicate; for EC50: read-out: cAMP pEC50 (converted); for Emax: HEK-293T, read-out: cAMP Emax (% WT)
T3 sequence (O95838 1-553 W249A): T1 sequence (O95838 1-553 R242E) with E242R, W249A
Method: as §1

HADGSFTSDVSSYLEGQAARDFINWLIQTKITD [Chimeric GLP-1/GLP-2 (7-19)]
Emax ([1]; Table S5, R242E): 108 ± 5.5% | EC50 ([1]; Table S5, R242E): 39.8 nM | Emax ([2]; Table S5, Y252A): 106 ± 5.1% | EC50 ([2]; Table S5, Y252A): 50.1 nM

HADGSFSDEMNTILDNLAAKEFIAWLVKGRG [Chimeric GLP-1/GLP-2 (20-33)]
Emax ([1]; Table S5, R242E): 103 ± 3.5% | EC50 ([1]; Table S5, R242E): 5.01 nM | EC50 ([3]; Table S5, W249A): 6310 nM | Emax ([2]; Table S5, Y252A): 104 ± 2.1% | EC50 ([2]; Table S5, Y252A): 3.98 nM

HAEGTFSDEMNTILDNLAARDFINWLIQTKITD [Chimeric GLP-1/GLP-2 (1-6)]
Emax ([1]; Table S5, R242E): 108 ± 3.2% | EC50 ([1]; Table S5, R242E): 25.1 nM | EC50 ([3]; Table S5, W249A): 1260 nM | Emax ([2]; Table S5, Y252A): 103 ± 3.1% | EC50 ([2]; Table S5, Y252A): 6.31 nM

CC[C@H](C)[C@H](NC(=O)[C@H](Cc1ccccc1)NC(=O)[C@H](CC(=O)O)NC(=O)[C@H](CCCNC(=N)N)NC(=O)[C@H](C)NC(=O)[C@H](C)NC(=O)[C@H](CC(C)C)NC(=O)[C@H](CC(N)=O)NC(=O)[C@H](CC(=O)O)NC(=O)[C@H](CC(C)C)NC(=O)[C@@H](NC(=O)[C@@H](NC(=O)[C@H](CC(N)=O)NC(=O)[C@H](CCSC)NC(=O)[C@H](CCC(=O)O)NC(=O)[C@H](CC(=O)O)NC(=O)[C@H](CO)NC(=O)[C@H](Cc1ccccc1)NC(=O)[C@H](CO)NC(=O)CNC(=O)[C@H](CC(=O)O)NC(=O)[C@H](C)NC(=O)[C@@H](N)Cc1c[nH]cn1)[C@@H](C)O)[C@@H](C)CC)C(=O)N[C@@H](CC(N)=O)C(=O)N[C@@H](Cc1c[nH]c2ccccc12)C(=O)N[C@@H](CC(C)C)C(=O)N[C@H](C(=O)N[C@@H](CCC(N)=O)C(=O)N[C@H](C(=O)N[C@@H](CCCCN)C(=O)N[C@H](C(=O)N[C@H](C(=O)N[C@@H](CC(=O)O)C(=O)O)[C@@H](C)O)[C@@H](C)CC)[C@@H](C)O)[C@@H](C)CC [Human GLP-2 (1–33)]
Emax ([1]; Table S3, R242E): 108 ± 1.9% | Emax ([1]; Table S5, R242E): 103 ± 2.3% | Emax ([3]; Table S3, W249A): 128 ± 162% | Emax ([3]; Table S5, W249A): 113 ± 4.1% | Emax ([2]; Table S3, Y252A): 103 ± 2.6% | Emax ([2]; Table S5, Y252A): 102 ± 2.2%
